The results in this text go back to patent US20240360146A1, “BRUTON'S TYROSINE KINASE AND MUTANT DEGRADER, COMPOSITION AND APPLICATION THEREOF” (HANGZHOU HEALZEN THERAPEUTICS CO., LTD., priority 2021, published 2024).

One experiment addresses T1, BTK (Homo sapiens, UniProt Q06187).
T1 construct: endogenous in cells; host or cells: Mino cells
Kind of experiment: BTK degradation activity test in Mino cells. The class given is cell-based. The following applies: 16 h incubation, Western blot or Elisa. An outline of the steps: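 DC50 derived by curve fitting of BTK degradation rates versus untreated control across compound concentrations. Mino cells were exposed for 16 h; BTK levels in lysates, normalised via BCA protein, measured by Western blot or ELISA.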
For orientation: Immunoblotting shows a protein as a band on a membrane.

In the next experiment the test system is Mino cells. Kind of experiment: Inhibitory activity on Mino cell proliferation (MTS). Particulars: Homo sapiens, 168 h incubation. The class given is cell-based. Here is the method: The anti-tumor efficacy of the compounds was tested by measuring their inhibitory effects on OCI-LY10 and Mino cell proliferation. OCI-LY10 and Mino cells were cultured in RPMI-1640 medium containing 10% fetal calf serum. OCI-LY10 and Mino cells were digested, inoculated in a 96-well plate at a cell concentration of 10000 cells/well, and incubated overnight at 37° C., 5% CO2. Compounds of different concentrations (1000 nM, 4-fold dilution, 8 points) were added to the 96-well plate and incubated for 72 h (LY10) or 168 h (Mino) at 37° C. and 5% CO2, and then 20 uL of MTS was added to each well. After incubation for 2 h, 25 μl of 10% SDS was added to each well to terminate the reaction. The absorbance at 490 nm and 650 nm were measured with a microplate reader. IC50 was calculated using GraphPad Prism 5.0.

T1 sequence (Q06187 whole entry): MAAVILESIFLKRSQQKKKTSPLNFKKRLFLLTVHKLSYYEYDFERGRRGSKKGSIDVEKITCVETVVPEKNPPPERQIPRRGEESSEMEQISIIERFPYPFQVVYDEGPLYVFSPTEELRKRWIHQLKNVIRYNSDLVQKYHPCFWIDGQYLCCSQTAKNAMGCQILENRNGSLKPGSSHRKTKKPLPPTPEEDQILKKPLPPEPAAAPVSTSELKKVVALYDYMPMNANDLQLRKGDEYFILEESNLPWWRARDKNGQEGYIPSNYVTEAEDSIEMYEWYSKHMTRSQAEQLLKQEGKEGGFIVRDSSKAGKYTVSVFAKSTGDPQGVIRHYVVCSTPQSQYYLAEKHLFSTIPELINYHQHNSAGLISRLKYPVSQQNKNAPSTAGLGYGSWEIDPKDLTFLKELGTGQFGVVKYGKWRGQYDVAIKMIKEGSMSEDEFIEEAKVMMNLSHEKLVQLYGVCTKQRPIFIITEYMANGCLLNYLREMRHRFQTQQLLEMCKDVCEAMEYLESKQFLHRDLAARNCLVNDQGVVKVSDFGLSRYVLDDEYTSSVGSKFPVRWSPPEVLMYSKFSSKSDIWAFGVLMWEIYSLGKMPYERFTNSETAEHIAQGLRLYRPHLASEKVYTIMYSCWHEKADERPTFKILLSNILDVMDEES

As to `CN1CCN([C@@H]2CCCN(c3nnc(C(N)=O)c(Nc4ccc(N5CCN(CC6CCN(c7ccc8c(C9CCC(=O)NC9=O)nn(C)c8c7)CC6)CC5)c(F)c4)n3)C2)C1=O` (stereo partly drawn) [Compound 213, 5-((4-(4-((1-(3-(2,6-dioxopiperidin-3-yl)-1-methyl-1H-indazol-6-yl)piperidin-4-yl)methyl)piperazin-1-yl)-3-fluorophenyl)amino)-3-((R)-3-(3-methyl-2-oxoimidazolidin-1-yl)piperidin-1-yl)-1,2,4-triazin-6-carboxamide], the DC50 at BTK is less than 1 nM. In addition, in the experiment on Mino cells, inhibition was half-maximal at 7.64 nM (IC50).

The molecule `CN1CCN([C@@H]2CCCN(c3nnc(C(N)=O)c(Nc4ccc(N5CCN(CC6CCN(c7ccc(N8CCC(=O)NC8=O)c8ocnc78)CC6)CC5)c(F)c4)n3)C2)C1=O` [Compound 191, (R)-5-((4-(4-((1-(7-(2,4-dioxotetrahydropyrimidin-1(2H)-yl)benzo[d]oxazol-4-yl)piperidin-4-yl)methyl)piperazin-1-yl)-3-fluorophenyl)amino)-3-(3-(3-methyl-2-oxoimidazolidin-1-yl)piperidin-1-yl)-1,2,4-triazin-6-carboxamide] showed a DC50 at BTK of less than 1 nM. Also, in the experiment with Mino cells, the IC50 was determined as 8.47 nM.

In the case of `CN1CCN([C@@H]2CCCN(c3nnc(C(N)=O)c(Nc4ccc(N5CCN(CC6CCN(c7ccc(N8CCC(=O)NC8=O)c8[nH]cnc78)CC6)CC5)c(F)c4)n3)C2)C1=O` [Compound 192, (R)-5-((4-(4-((1-(7-(2,4-dioxotetrahydropyrimidin-1(2H)-yl)-1H-benzo[d]imidazol-4-yl)piperidin-4-yl)methyl)piperazin-1-yl)-3-fluorophenyl)amino)-3-(3-(3-methyl-2-oxoimidazolidin-1-yl)piperidin-1-yl)-1,2,4-triazin-6-carboxamide], the DC50 at BTK is less than 1 nM. In the experiment with Mino cells, this molecule had an IC50 of 2.41 nM.

On to `CN1CCN([C@@H]2CCCN(c3nnc(C(N)=O)c(Nc4ccc(N5CCN(CC6CCN(c7ccc(N8CCC(=O)NC8=O)c(C(F)F)c7)CC6)CC5)c(F)c4)n3)C2)C1=O` [Compound 188, (R)-5-((4-(4-((1-(3-(difluoromethyl)-4-(2,4-dioxotetrahydropyrimidin-1(2H)-yl)phenyl)piperidin-4-yl)methyl)piperazin-1-yl)-3-fluorophenyl)amino)-3-(3-(3-methyl-2-oxoimidazolidin-1-yl)piperidin-1-yl)-1,2,4-triazin-6-carboxamide], for which the DC50 at BTK was less than 1 nM. Besides, the IC50 in the experiment on Mino cells was found to be 5.55 nM.

With `CC(C)c1cc(N2CCC(CN3CCN(c4ccc(Nc5nc(N6CCC[C@@H](N7CCN(C)C7=O)C6)nnc5C(N)=O)cc4F)CC3)CC2)ccc1N1CCC(=O)NC1=O` [Compound 189, (R)-5-((4-(4-((1-(4-(2,4-dioxotetrahydropyrimidin-1(2H)-yl)-3-isopropylphenyl)piperidin-4-yl)methyl)piperazin-1-yl)-3-fluorophenyl)amino)-3-(3-(3-methyl-2-oxoimidazolidin-1-yl)piperidin-1-yl)-1,2,4-triazin-6-carboxamide], on BTK, the DC50 is less than 1 nM. The molecule also registered an IC50 with Mino cells of 5.45 nM.

With `CN1CCN([C@@H]2CCCN(c3nnc(C(N)=O)c(Nc4ccc(N5CCN(C[C@@H]6CCN(c7ccc(N8CCC(=O)NC8=O)cc7)C6)CC5)c(F)c4)n3)C2)C1=O` [Compound 152, 5-((4-(4-(((S)-1-(4-(2,4-dioxotetrahydropyrimidin-1(2H)-yl)phenyl)pyrrolidin-3-yl)methyl)piperazin-1-yl)-3-fluorophenyl)amino)-3-((R)-3-(3-methyl-2-oxoimidazolin-1-yl)piperidin-1-yl)-1,2,4-triazin-6-carboxamide], at BTK, the DC50 was less than 1 nM. This molecule also had an IC50 in the experiment with Mino cells of 2.8 nM.

Consider `CN1CCN([C@@H]2CCCN(c3nnc(C(N)=O)c(Nc4ccc(N5CCN(CC6CCN(c7ccc(N8CCC(=O)NC8=O)c(C(F)(F)F)c7)CC6)CC5)c(F)c4)n3)C2)C1=O` [Compound 187, (R)-5-((4-(4-((1-(4-(2,4-dioxotetrahydropyrimidin-1(2H)-yl)-3-(trifluoromethyl)phenyl)piperidin-4-yl)methyl)piperazin-1-yl)-3-fluorophenyl)amino)-3-(3-(3-methyl-2-oxoimidazolidin-1-yl)piperidin-1-yl)-1,2,4-triazin-6-carboxamide], for which the DC50 at BTK was less than 1 nM. For the same molecule, half-maximal inhibition in the experiment on Mino cells (IC50) required 2.07 nM.

`CN1CCN([C@@H]2CCCN(c3nnc(C(N)=O)c(Nc4ccc(N5CCN(CC6CCN(c7ccc(NC8CCC(=O)NC8=O)c8ocnc78)CC6)CC5)c(F)c4)n3)C2)C1=O` (stereo partly drawn) [Compound 210, 5-((4-(4-((1-(7-((2,6-dioxopiperidin-3-yl)amino)benzo[d]oxazol-4-yl)piperidin-4-yl)methyl)piperazin-1-yl)-3-fluorophenyl)amino)-3-((R)3-(3-methyl-2-oxoimidazolidin-1-yl)piperidin-1-yl)-1,2,4-triazin-6-carboxamide] gave a DC50 on BTK of less than 1 nM. Moreover, the IC50 with Mino cells amounted to 2.33 nM.

For `CN1CCN([C@@H]2CCCN(c3nnc(C(N)=O)c(Nc4ccc(N5CCN(CC6CCN(c7ccc(C(=O)NC8CCC(=O)NC8=O)c(F)c7F)CC6)CC5)c(F)c4)n3)C2)C1=O` (stereo partly drawn) [Compound 182, 5-((4-(4-((1-(4-((2,6-dioxopiperidin-3-yl)carbamoyl)-2,3-difluorophenyl)piperidin-4-yl)methyl)piperazin-1-yl)-3-fluorophenyl)amino)-3-((R)-3-(3-methyl-2-oxoimidazolidin-1-yl)piperidin-1-yl)-1,2,4-triazin-6-carboxamide], the DC50 on BTK is less than 1 nM. The same molecule gave an IC50 in the experiment on Mino cells of 3.19 nM.

The molecule `NC(=O)c1nnc(N2CCCC(N3CCN(C4CCCC4)C3=O)C2)nc1Nc1ccc(C2CCN(CC3CCN(c4ccc5c(c4)C(=O)N(C4CCC(=O)NC4=O)C5=O)CC3)CC2)cc1` (stereo not shown) [Compound 060, 3-(3-(3-cyclopentyl-2-oxoimidazolin-1-yl)piperidin-1-yl)-5-((4-(1-((1-(2-(2,6-dioxopiperidin-3-yl)-1,3-dioxoisoindol-5-yl)piperidin-4-yl)methyl)piperidin-4-yl)phenyl)amino)-1,2,4-triazin-6-carboxamide] returned a DC50 on BTK of less than 1 nM.

On BTK, `NC(=O)c1ncc(N2CCCC(N3CCN(C4CCCC4)C3=O)C2)nc1Nc1ccc(C(=O)C2CCN(CC3CCN(c4ccc5c(c4)C(=O)N(C4CCC(=O)NC4=O)C5=O)CC3)CC2)cc1` (stereo not shown) [Compound 028, 5-(3-(3-cyclopentyl-2-oxoimidazolin-1-yl)piperidin-1-yl)-3-((4-(1-((1-(2-(2,6-dioxopiperidin-3-yl)-1,3-dioxoisoindolin-5-yl)piperidin-4-yl)methyl)piperidin-4-formyl)phenyl)amino)pyrazin-2-carboxamide] had a DC50 greater than 1 nM.

Turning to `N#Cc1cc(Nc2nc(N3CCCC(N4CCN(C5CCCC5)C4=O)C3)cnc2C(N)=O)ccc1C1CCN(CC2CCN(c3ccc4c(c3)C(=O)N(C3CCC(=O)NC3=O)C4=O)C2)CC1` (stereo not shown) [Compound 042, 3-((3-cyano-4-(1-((1-(2-(2,6-dioxopiperidin-3-yl)-1,3-dioxoisoindolin-5-yl)pyrrolidin-3-yl)methyl)piperidin-4-yl)phenyl)amino)-5-(3-(3-cyclopentyl-2-oxoimidazolin-1-yl)piperidin-1-yl)pyrazin-2-carboxamide], the DC50 at BTK was less than 1 nM.

In turn, `CN1CCN([C@@H]2CCCN(c3nnc(C(N)=O)c(Nc4ccc(N5CCN(CC6CCN(c7ccc(NC8CCC(=O)NC8=O)c(F)c7)C6)CC5)c(F)c4)n3)C2)C1=O` (stereo partly drawn) [Compound 204, 5-((4-(4-((1-(4-((2,6-dioxopiperidin-3-yl)amino)-3-fluorophenyl)pyrrolidin-3-yl)methyl)piperazin-1-yl)-3-fluorophenyl)amino)-3-((R)-3-(3-methyl-2-oxoimidazolidin-1-yl)piperidin-1-yl)-1,2,4-triazin-6-carboxamide] yielded a DC50 on BTK of less than 1 nM.

In the case of `NC(=O)c1nnc(N2CCCC(N3CCN(CC(F)(F)F)C3=O)C2)nc1Nc1ccc(C2CCN(CC3CCN(c4ccc5c(c4)C(=O)N(C4CCC(=O)NC4=O)C5=O)CC3)CC2)cc1` (stereo not shown) [Compound 057, 5-((4-(1-((1-(2-(2,6-dioxopiperidin-3-yl)-1,3-dioxoisoindol-5-yl)piperidin-4-yl)methyl)piperidin-4-yl)phenyl)amino)-3-(3-(2-oxo-3-(2,2,2-trifluoroethyl)imidazolin-1-yl)piperidin-1-yl)-1,2,4-triazin-6-carboxamide], the DC50 on BTK was less than 1 nM.

With `CC1(c2ccc(Nc3nc(N4CCCC(N5CC6CCCCN6C5=O)C4)cnc3C(N)=O)cc2)CCN(C2CN(c3ccc4c(c3)C(=O)N(C3CCC(=O)NC3=O)C4=O)C2)CC1` (stereo not shown) [Compound 006, 3-((4-(1-(1-(2-(2,6-dioxopiperidin-3-yl)-1,3-dioxoisoindol-5-yl)azetidin-3-yl)-4-methylpiperidin-4-yl)phenyl)amino)-5-(3-(3-oxohexahydroimidazo[1,5-a]pyridin-2(3H)-yl)piperidin-1-yl)pyrazin-2-carboxamide], the DC50 on BTK is less than 1 nM.

In the case of `CN1CCN([C@@H]2CCCN(c3nnc(C(N)=O)c(Nc4ccc(N5CCN(CC6CCN(c7ccc8c(c7)C(=O)N(C7CCC(=O)NC7=O)C8=O)CC6)CC5)c(F)c4F)n3)C2)C1=O` (stereo partly drawn) [Compound 165, 5-((4-(4-((1-(2-(2,6-dioxopiperidin-3-yl)-1,3-dioxoisoindolin-5-yl)piperidin-4-yl)methyl)piperazin-1-yl)-2,3-difluorophenyl)amino)-3-((R)-3-(3-methyl-2-oxoimidazolidin-1-yl)piperidin-1-yl)-1,2,4-triazin-6-carboxamide], on BTK, the DC50 was less than 1 nM.

A word on the DC50: it is the midpoint of the concentration-degradation curve. For orientation: IC50 means the midpoint of a concentration-inhibition curve. Low values mean higher potency, high ones lower potency.
